{"source": "patent US20190365719A1", "about": "“COMBINATION TREATMENTS OF HSP90 INHIBITORS FOR ENHANCING TUMOR IMMUNOGENICITY AND METHODS OF USE THEREOF” (Massachusetts Institute of Technology, priority 2018, published 2019)", "molecules": {"B1": {"name": "IFN-γ: cytokine, canonical stimulus of antigen presentation, comparator at 10 ng/mL (protein, UniProt P01580 23-155, looked up)", "Interferon gamma": "HGTVIESLESLNNYFNSSGIDVEEKSLFLDIWRNWQKDGDMKILQSQIISFYLRLFEVLKDNQAISNNISVIESHLITTFFSNSKAKKDAFMSIAKFEVNNPQVQRQAFNELIRVVHQLLPESSLRKRKRSRC"}}, "key": {"[1]": {"test_system": "MC38 cells", "assay": "Flow cytometry of MHC Class I H2-Kb surface expression on MC38 cells", "format": "cell-based, mouse", "experimental": "(§1) For analysis of MHC Class I surface expression, cells were seeded into 12 well plates (125,000/well). 24-hours later, cells were treated with the indicated concentrations of HSP90i (NVP-HSP990) or DMSO vehicle. 72-hours after treatment, cells were dissociated with Accumax (Innovative Cell Technologies) and each treatment condition was distributed into 2 wells of a 96 well plate. […] After incubation with antibody, cells were washed 1× in ice cold PBS+10% FBS prior to analysis on a MACSQuant VYB flow cytometer. Cytometric data were plotted and analyzed with FloJo.\nas §1, with “LSR-2” for “MACSQuant VYB”"}, "[2]": {"conditions": "cited from earlier work"}, "[3]": {"conditions": "cited from earlier work", "remark": "listed apart in the source"}, "[4]": {"conditions": "relative to 17-AAG; cited from earlier work"}, "[5]": {"test_system": "TMK-1 xenografts", "conditions": "5 mg/kg or 25 mg/kg thrice per week; cited from earlier work"}, "[6]": {"test_system": "human HSP90", "conditions": "cited from earlier work"}, "[7]": {"test_system": "TCL1-SCID transplant", "conditions": "10 mg/kg for 16 days; cited from earlier work"}, "[8]": {"test_system": "tumor growth", "conditions": "25 mg/kg three times a week; cited from earlier work"}, "[9]": {"conditions": "mono-therapy, cited from earlier work"}, "[10]": {"test_system": "A375 cells", "conditions": "cited from earlier work"}, "[11]": {"target": "HSP90", "conditions": "binding to HSP90, same site; cited from earlier work"}, "[12]": {"test_system": "HSP90", "conditions": "cited from earlier work"}, "[13]": {"target": "HSP90", "conditions": "cited from earlier work", "remark": "listed apart in the source"}, "[14]": {"conditions": "10 mg/kg i.v., test animals; cited from earlier work"}, "[15]": {"test_system": "A375 and A2780 xenografts", "conditions": "60 mg/kg i.v.; cited from earlier work"}, "[16]": {"test_system": "HSP90", "conditions": "cited from earlier work", "remark": "listed apart in the source"}, "[17]": {"test_system": "refractory neuroendocrine tumors (NET)s", "conditions": "42-100 mg/m2 every other day; cited from earlier work"}, "[18]": {"test_system": "M229R and 1205LuR xenografts", "conditions": "cited from earlier work"}, "[19]": {"test_system": "MC38 cells", "assay": "Immunoblot analysis of MC38 cells", "format": "cell-based, mouse", "conditions": "Hsp90i 60 nM or IFN-γ 10 ng/mL", "experimental": "Protein extraction was performed by washing cells 2× with PBS. A volume of lysis buffer (50 mM Tris pH 7.5, 150 mM NaCl, 1 mM EDTA, 1% Triton-X100, 0.1% SDS, 1× Halt Protease/Phosphatase inhibitor) equal to 1/10 the culture media volume was added directly to the culture dish and incubated for 2-3 min on ice. Lysates were then thoroughly scraped and pipetted into 1.5 mL tubes and incubated for an additional 30 min on ice. Lysates were then cleared by centrifugation at 14,000×g for 15 min and quantified using BCA Assay. Lysates were separated by SDS-PAGE and transferred to 0.2 μm nitrocellulose membranes prior to washing with PBST, blocking with 5% milk in PBST, and incubation with primary antibody overnight at 4° C. All primary antibodies were diluted 1:1000 in 2.5% milk in PBST. Membranes were then washed 4×5 min with PBST and incubated with HRP conjugated secondary antibody at a 1:10,000 dilution in 2.5% milk in PBST, and washed again 4×5 min with PBST. Detection of secondary antibody was performed with SuperSignal West Pico or Femto ECL reagents (Pierce) and digitally imaged on a ChemiDoc (BioRad).\nImmunoblotting was performed as described in Example 4. Briefly, protein extraction was performed by washing cells with PBS and then isolating whole cell lysates in lysis buffer (50 mM Tris pH 7.5, 150 mM NaCl, 1 mM EDTA, 1% Triton-X100, 0.1% SDS, 1× Halt Protease/Phosphatase inhibitor) Lysates were then cleared by centrifugation and quantified using BCA Assay. Lysates were separated by SDS-PAGE and transferred to 0.2 μm nitrocellulose membranes prior to washing with PBST, blocking with 5% milk in PBST, and incubation with primary antibody overnight at 4° C. All primary antibodies were diluted 1:1000 in 2.5% milk in PBST. Membranes were then washed and incubated with HRP conjugated secondary antibody. Detection of secondary antibody was performed with SuperSignal West Pico or Femto ECL reagents (Pierce) and digitally imaged on a ChemiDoc (BioRad)."}}, "note": "Like-named read-outs stand apart in the source and are kept apart here.", "data": [{"molecule": "COc1ccc(C[C@H](NC(=O)[C@H](C)NC(=O)CN2CCOCC2)C(=O)N[C@@H](Cc2ccccc2)C(=O)C2(C)CO2)cc1", "note": "(stereo in doubt) [ONX-0914]", "values": [{"measurement": "effect on HSP90i-caused increase in MHC Class I surface expression", "setting": "[1]; ONX-0914 500 nM with low level HSP90i", "result": "abrogated the increase in MHC Class I surface expression"}]}, {"molecule": "C=CCNC1=C2C[C@@H](C)C[C@H](OC)[C@H](O)[C@@H](C)/C=C(\\C)[C@H](OC(N)=O)[C@@H](OC)/C=C\\C=C(/C)C(=O)NC(=CC1=O)C2=O", "note": "[17-AAG, 17-Allylamino-17-demethoxy-geldanamycin]", "values": [{"measurement": "water solubility (in words)", "setting": "[2]", "result": "not water-soluble"}, {"measurement": "maximum tolerated dose (MTD)", "setting": "[3]; IV over 60 minutes on days 1, 4, 8 and 11 of each 21 day cycle", "result": 150, "unit": "mg/m^2"}]}, {"molecule": "CO[C@H]1/C=C\\C=C(/C)C(=O)NC2=CC(=O)C(NCCN(C)C)=C(C[C@@H](C)C[C@H](OC)[C@H](O)[C@@H](C)/C=C(\\C)[C@@H]1OC(N)=O)C2=O.Cl", "note": "[17-DMAG, 17-dimethylaminoethylamino-17-demethoxy-geldanamycin]", "values": [{"measurement": "plasma half-life, oral bioavailability, metabolism", "setting": "[4]", "result": "longer plasma half-life, greater oral bioavailability, and less extensive metabolism"}, {"measurement": "tumor growth of TMK-1 xenografts", "setting": "[5]", "result": "significantly reduces tumor growth"}, {"measurement": "IC50", "setting": "[6]; cell-free assay", "result": 62, "unit": "nM"}, {"measurement": "potency against human HSP90 as compared with 17-AAG", "setting": "[6]", "result": "~2", "unit": "times"}, {"measurement": "survival", "setting": "[7]", "result": "prolongs the survival"}, {"measurement": "white blood cell count", "setting": "[7]", "result": "significantly decreases the white blood cell count"}, {"measurement": "tumor growth in mice", "setting": "[8]", "result": "significantly suppresses tumor growth"}]}, {"molecule": "CC(C)c1cc(C(=O)N2Cc3ccc(CN4CCN(C)CC4)cc3C2)c(O)cc1O", "note": "[AT13387]", "values": [{"measurement": "tolerated dose", "setting": "[9]; once weekly", "result": "≤ 90", "unit": "mg/kg"}, {"measurement": "tolerated dose", "setting": "[9]; twice weekly", "result": "up to 70 mg/kg"}, {"measurement": "IC50", "setting": "[10]", "result": 18, "unit": "nM"}, {"measurement": "Kd", "setting": "[11]", "result": 0.7, "unit": "nM"}, {"measurement": "RP2D", "setting": "[3]; six doses in a four-week schedule (day 1, 2, 8, 9, 15, 16)", "result": 160, "unit": "mg/m2"}, {"measurement": "R2PD", "setting": "[3]; twice weekly for 3 weeks in a 4-week regimen, diarrhea, nausea, vomiting, fatigue, systemic infusion reactions", "result": 260, "unit": "mg/m2"}, {"measurement": "MTD", "setting": "[3]; twice weekly for 3 weeks in a 4-week regimen, visual disturbances", "result": 120, "unit": "mg/m2"}]}, {"molecule": "CCNC(=O)c1noc(-c2cc(C(C)C)c(O)cc2O)c1-c1ccc(CN2CCOCC2)cc1", "note": "[AUY922]", "values": [{"measurement": "maximum tolerated dose", "setting": "[3]; once weekly intravenous infusion", "result": 70, "unit": "mg/m^2"}]}, {"molecule": "COc1c(C)cnc(Cn2cnc3c(Cl)nc(N)nc32)c1C", "note": "[BIIB021]", "values": [{"measurement": "EC50", "setting": "[12]", "result": "[…]"}, {"measurement": "Ki", "setting": "[13]", "result": "[…]"}, {"measurement": "MTD", "setting": "[3]; twice-weekly oral dosing schedule", "result": 800, "unit": "mg"}]}, {"molecule": "C=CCNc1c(O)cc2c(O)c1C[C@@H](C)C[C@H](OC)[C@H](O)[C@@H](C)/C=C(\\C)[C@@H](OC(N)=O)[C@H](OC)/C=C\\C=C(/C)C(=O)N2.Cl", "note": "[IPI-504]", "values": [{"measurement": "aqueous solubility", "setting": "[2]", "result": "> 200", "unit": "mg/mL"}, {"measurement": "maximum tolerated dose (MTD) and recommended phase II dose (RP2D)", "setting": "[3]; iv, in combination with docetaxel 75 mg/m^2 once every three weeks, phase Ib", "result": 450, "unit": "mg/m^2"}, {"measurement": "MTD from phase 1 trial", "setting": "[3]; monotherapy, intravenous infusion over 30 minutes", "result": 225, "unit": "mg/m^2"}, {"measurement": "on-treatment deaths, considered drug-related", "setting": "[3]; phase III trial, metastatic and/or unresectable GIST", "result": "four"}]}, {"molecule": "CN1CCC(NC(=O)c2cc(-c3c(O)cc(O)cc3Oc3ccc([N+](=O)[O-])cc3)on2)CC1", "note": "[NMS-E973]", "values": [{"measurement": "blood-brain barrier penetration", "setting": "[14]", "result": "ability to cross the blood-brain barrier"}, {"measurement": "pharmacokinetic profile", "setting": "[14]", "result": "favorable pharmacokinetic profile"}, {"measurement": "antitumor efficacy", "setting": "[15]", "result": "high antitumor efficacy"}]}, {"molecule": "CC(C)NCCCn1c(Sc2cc3c(cc2I)OCO3)nc2c(N)ncnc21", "note": "[PU-H71]", "values": [{"measurement": "IC50", "setting": "[16]", "result": "[…]"}, {"measurement": "MTD", "setting": "[3]; intravenous (iv) infusion", "result": "350-400 mg/m2"}]}, {"molecule": "CC1(C)CC(=O)c2c(C(F)(F)F)nn(-c3ccc(C(N)=O)c(N[C@H]4CC[C@H](O)CC4)c3)c2C1", "note": "[SNX-2112]", "values": [{"measurement": "MHC-I surface expression on MC38 cells", "setting": "[1]; 60 nM for each drug", "result": "induced MHC-I"}]}, {"molecule": "CC1(C)CC(=O)c2c(C(F)(F)F)nn(-c3ccc(C(N)=O)c(N[C@H]4CC[C@H](OC(=O)CN)CC4)c3)c2C1", "note": "[SNX-5422]", "values": [{"measurement": "patients achieving stable disease for >8 cycles", "setting": "[17]", "result": "2 of 3"}, {"measurement": "MTD", "setting": "[3]; oral, pancreatic NETs and nonfunctional gastrointestinal and pulmonary NETs", "result": 75, "unit": "mg/m^2"}]}, {"molecule": "CC[C@@H](C)Nc1cc(C(=O)NC2CC3CCC(C2)N3c2ccc(C(=O)C3CC3)cn2)c(C)cc1C(N)=O", "note": "(stereo partly drawn) [XL888]", "values": [{"measurement": "growth inhibition of established xenografts", "setting": "[18]; 100 mg/kg, SCID mice", "result": 50, "unit": "%"}, {"measurement": "increase in intratumoral HSP70 expression compared with controls", "setting": "[18]; 15 days of treatment", "result": 8.6, "unit": "fold"}]}, {"molecule": "B1", "values": [{"measurement": "expression of downstream markers of IFN-γ signaling (Stat1, Stat3, pStat3, PD-L1)", "setting": "[19]", "result": "induced expression of downstream markers of IFN-γ signaling"}]}]}
